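48-hour exposure; five concentrations; linearly interpolated endpoints. GI50: concentration for 50% inhibition of growth.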 The source made the active and inactive calls. No stated cut-off is given here; in the data, active = GI50 up to about 1.1 µM and inactive = higher.
Tests used:
Experiment in all cases: NCI tumour cell line growth inhibition, 48 h
PC-3 = tested on: PC-3
UACC-62 = tested on: UACC-62
SK-MEL-2 = tested on: SK-MEL-2
A549 = tested on: A549
EKVX = tested on: EKVX
SNB-19 = tested on: SNB-19
SK-MEL-5 = tested on: SK-MEL-5
MDA-MB-435 = tested on: MDA-MB-435
BT-549 = tested on: BT-549
OVCAR-5 = tested on: OVCAR-5
SF-295 = tested on: SF-295
HL-60 = tested on: HL-60
SF-539 = tested on: SF-539
SF-268 = tested on: SF-268
U-251 = tested on: U-251
OVCAR-8 = tested on: OVCAR-8
SNB-75 = tested on: SNB-75
SN12C = tested on: SN12C

Measured: GI50

O=C(Nc1ccccc1F)c1cc2ccc(O)cc2o/c1=N\c1ccccc1F
inactive: PC-3 2.58 µM | UACC-62 2.37 µM | SK-MEL-2 1.84 µM | A549 2.31 µM | EKVX 2.75 µM | SNB-19 4.25 µM | SK-MEL-5 1.77 µM | MDA-MB-435 2.03 µM | BT-549 2.83 µM | OVCAR-5 4.5 µM | SF-295 2.84 µM | HL-60 2.09 µM | SF-539 3.33 µM | SF-268 2.27 µM | U-251 1.93 µM | OVCAR-8 1.77 µM

CC(CC(=O)O)(CC(=O)O)c1ccccc1
inactive: PC-3 > 100 µM | UACC-62 > 100 µM | SNB-75 > 100 µM | SK-MEL-2 > 100 µM | A549 > 100 µM | EKVX > 100 µM | SNB-19 > 100 µM | SK-MEL-5 > 100 µM | MDA-MB-435 > 100 µM | BT-549 > 100 µM | OVCAR-5 > 100 µM | SF-295 > 100 µM | HL-60 > 100 µM | SN12C > 100 µM | SF-268 > 100 µM | U-251 > 100 µM | OVCAR-8 > 100 µM

CCOC(=O)c1cn(-c2ccccc2)c(=S)n2c1nc1ccccc12
inactive: PC-3 24.4 µM | UACC-62 53.8 µM | SNB-75 > 71.6 µM | SK-MEL-2 32.9 µM | A549 42.9 µM | EKVX 32.8 µM | SNB-19 > 66.2 µM | SK-MEL-5 23.1 µM | MDA-MB-435 32.5 µM | BT-549 41.8 µM | OVCAR-5 > 100 µM | SF-295 71.8 µM | SN12C > 70.1 µM | SF-539 32.7 µM | SF-268 21.7 µM | U-251 58.5 µM | OVCAR-8 24.4 µM

Cc1ccc(C(=O)NN=C(/N=N/c2cccc(C)c2)c2ccc(N(C)C)cc2)cc1
inactive: PC-3 > 100 µM | UACC-62 > 100 µM | SK-MEL-2 > 100 µM | A549 > 100 µM | EKVX > 100 µM | SNB-19 > 100 µM | SK-MEL-5 > 100 µM | MDA-MB-435 > 100 µM | BT-549 > 100 µM | OVCAR-5 > 100 µM | SF-295 > 100 µM | HL-60 > 100 µM | SN12C > 100 µM | SF-539 > 100 µM | SF-268 > 100 µM | U-251 > 100 µM | OVCAR-8 > 100 µM

CC(=O)OC(/C=C/c1ccccc1)=C(OC(C)C)/C1=C(\c2ccccc2)SCCCSC1=O
inactive: PC-3 > 100 µM | UACC-62 63 µM | SNB-75 52.6 µM | SK-MEL-2 > 100 µM | A549 > 100 µM | EKVX 53.2 µM | SNB-19 > 100 µM | SK-MEL-5 > 100 µM | MDA-MB-435 > 100 µM | BT-549 44.6 µM | OVCAR-5 > 100 µM | SF-295 56.8 µM | HL-60 49.8 µM | SF-539 > 100 µM | SF-268 > 100 µM | U-251 > 100 µM | OVCAR-8 > 100 µM

CCNc1nc(N)c(C(=O)c2ccc(Cl)cc2)s1
inactive: PC-3 39.9 µM | UACC-62 45.5 µM | SK-MEL-2 41.7 µM | A549 20.7 µM | EKVX 4.52 µM | SNB-19 18.9 µM | SK-MEL-5 27.7 µM | MDA-MB-435 32.2 µM | BT-549 40.3 µM | OVCAR-5 32.7 µM | HL-60 13.6 µM | SN12C 49.7 µM | SF-539 33 µM | SF-268 30.7 µM | U-251 36.7 µM

CC(=O)OC/C=C/[C@H](O[Si](C)(C)C(C)(C)C)[C@@H](O)/C=C/COC(C)=O
inactive: PC-3 > 100 µM | UACC-62 > 100 µM | SNB-75 5.45 µM | SK-MEL-2 > 100 µM | A549 > 100 µM | EKVX > 100 µM | SNB-19 > 100 µM | SK-MEL-5 > 100 µM | MDA-MB-435 > 100 µM | BT-549 > 100 µM | OVCAR-5 > 100 µM | SF-295 > 100 µM | SN12C > 100 µM | SF-539 > 100 µM | SF-268 > 100 µM | U-251 > 100 µM | OVCAR-8 > 100 µM

O=C(Nc1ccccc1)OC1OC(COC(=O)c2ccccc2)C(OC(=O)c2ccccc2)C1OS(=O)(=O)c1ccc([N+](=O)[O-])cc1 (stereo not given)
inactive: PC-3 > 100 µM | UACC-62 > 100 µM | SK-MEL-2 > 100 µM | A549 > 100 µM | EKVX 63.8 µM | SNB-19 > 100 µM | SK-MEL-5 > 100 µM | MDA-MB-435 > 100 µM | BT-549 > 100 µM | OVCAR-5 > 100 µM | SF-295 > 100 µM | HL-60 86.7 µM | SN12C > 100 µM | SF-539 > 100 µM | SF-268 > 100 µM | U-251 > 100 µM | OVCAR-8 > 100 µM

CCC(=O)OCN1C(=O)C=CC1=O
inactive: PC-3 17.1 µM | UACC-62 17 µM | SK-MEL-2 15.7 µM | A549 18.7 µM | EKVX 19.8 µM | SNB-19 18.5 µM | SK-MEL-5 27.5 µM | MDA-MB-435 15.2 µM | BT-549 18.5 µM | OVCAR-5 18.2 µM | SF-295 > 44.7 µM | HL-60 7.19 µM | SN12C 18.4 µM | SF-539 18.3 µM | SF-268 17.1 µM | U-251 17.6 µM | OVCAR-8 18.3 µM

CN1C(=O)C23CCCCC2CC1(c1ccccc1)S3 (stereo not given)
inactive: PC-3 44.1 µM | UACC-62 > 100 µM | SK-MEL-2 47.5 µM | A549 64.7 µM | EKVX > 100 µM | SNB-19 > 100 µM | SK-MEL-5 72.3 µM | MDA-MB-435 > 100 µM | BT-549 99.3 µM | OVCAR-5 > 100 µM | SF-295 65.3 µM | HL-60 35.7 µM | SN12C 94.4 µM | SF-539 > 100 µM | SF-268 > 100 µM | U-251 77.4 µM | OVCAR-8 > 100 µM

N#CCCCCC12C3C(=O)N(c4ccccc4)C(=O)C3ON1O[C@@H]1C(=O)N(c3ccccc3)C(=O)[C@@H]12 (stereo not given in full)
inactive: PC-3 > 100 µM | UACC-62 > 100 µM | A549 > 100 µM | EKVX > 100 µM | SNB-19 > 100 µM | SK-MEL-5 > 100 µM | MDA-MB-435 > 100 µM | BT-549 > 100 µM | OVCAR-5 > 100 µM | SF-295 > 100 µM | HL-60 > 100 µM | SN12C > 100 µM | SF-539 > 100 µM | SF-268 > 100 µM | U-251 > 100 µM | OVCAR-8 > 100 µM

O=C(c1nsc(Cl)c1Cl)N1CCCCC1
inactive: PC-3 > 100 µM | UACC-62 > 100 µM | SNB-75 > 100 µM | A549 > 100 µM | EKVX > 100 µM | SNB-19 82.8 µM | SK-MEL-5 > 100 µM | MDA-MB-435 > 100 µM | BT-549 > 100 µM | OVCAR-5 > 100 µM | SF-295 > 100 µM | HL-60 > 100 µM | SN12C > 100 µM | SF-539 > 100 µM | SF-268 > 100 µM | U-251 > 100 µM | OVCAR-8 > 100 µM

O=C1CCCC[C@H]1C(O)CC1CC(=O)N(c2ccccc2)C(=O)C1 (stereo not given in full)
inactive: PC-3 > 100 µM | UACC-62 > 100 µM | SNB-75 > 100 µM | A549 > 100 µM | SNB-19 > 100 µM | SK-MEL-5 > 100 µM | MDA-MB-435 > 100 µM | BT-549 > 100 µM | OVCAR-5 > 100 µM | SF-295 > 100 µM | HL-60 > 100 µM | SN12C > 100 µM | SF-539 > 100 µM | SF-268 > 100 µM | U-251 > 100 µM | OVCAR-8 > 100 µM

CCN(CC)C(=O)N[C@@H](Cc1ccccc1)C(=O)NC
inactive: PC-3 > 100 µM | UACC-62 > 100 µM | SNB-75 > 100 µM | SK-MEL-2 > 100 µM | A549 > 100 µM | EKVX > 100 µM | SNB-19 > 100 µM | SK-MEL-5 > 100 µM | MDA-MB-435 > 100 µM | BT-549 > 100 µM | OVCAR-5 > 100 µM | SF-295 > 100 µM | HL-60 > 100 µM | SN12C > 100 µM | SF-268 > 100 µM | U-251 > 100 µM | OVCAR-8 > 100 µM

N#CSC1CCCCNC1=O (stereo not given)
inactive: PC-3 13.6 µM | UACC-62 12.3 µM | SK-MEL-2 11.4 µM | A549 15.1 µM | EKVX 17.9 µM | SNB-19 15.2 µM | MDA-MB-435 13.9 µM | BT-549 5.93 µM | OVCAR-5 2 µM | SF-295 14.8 µM | HL-60 23.9 µM | SN12C 14.3 µM | SF-539 12.7 µM | SF-268 11.8 µM | U-251 11.2 µM | OVCAR-8 14.7 µM

COC(=O)C1(O)C(c2ccccc2)NC2(C)CCCC21 (stereo not given)
inactive: PC-3 > 100 µM | UACC-62 > 100 µM | SNB-75 > 100 µM | SK-MEL-2 > 100 µM | A549 > 100 µM | SNB-19 > 100 µM | SK-MEL-5 > 100 µM | MDA-MB-435 > 100 µM | BT-549 > 100 µM | SF-295 > 100 µM | HL-60 > 100 µM | SN12C > 100 µM | SF-539 > 100 µM | SF-268 > 100 µM | U-251 > 100 µM | OVCAR-8 > 100 µM

From ChEMBL document CHEMBL1201862, “PubChem BioAssay data set” (2004)
